Results taken from patent US20260165323A1, “USE OF STROBILURIN TYPE COMPOUNDS FOR COMBATING PHYTOPATHOGENIC FUNGI CONTAINING AN AMINO ACID SUBSTITUTION F129L IN THE MITOCHONDRIAL CYTOCHROME B PROTEIN CONFERRING RESISTANCE TO QO […]” (priority 2022, published 2026).

How the values were obtained:
Assay type in all cases: in vivo
[1] = tested on: Phakopsora pachyrhizi containing the amino acid substitution F129L in the mitochondrial cytochrome b protein; experiment: Use Example 1: protective control of soybean rust on soybeans (PHAKPA P2); details: inoculated 2 days after spraying, % diseased leaf area
Experimental: (§1) The compound was dissolved in a mixture of acetone and/or dimethylsulfoxide and the wetting agent/emulsifier Wettol, which is based on ethoxylated alkylphenoles, in a ratio (volume) solvent-emulsifier of 99 to 1 to give a total volume of 5 ml. Subsequently, water was added to total volume of 100 ml. This stock solution was then diluted with the described solvent-emulsifier-water mixture to the final concentration given in the tables below.
Use Example 1. Protective Control of Soybean Rust on Soybeans Caused by Phakopsora pachyrhizi (PHAKPA P2)
(§2) Leaves of potted soybean seedlings were sprayed to run-off with the previously described spray solution, containing the concentration of active ingredient or their mixture as described below. The plants were allowed to air-dry. The trial plants were cultivated for 2 days in a greenhouse chamber at 23-27° C. and a relative humidity between 60 and 80%. Then the plants were inoculated with spores of Phakopsora pachyrhizi. The strain used contains the amino acid substitution F129L in the mitochondrial cytochrome b protein conferring resistance to Qo inhibitors. To ensure the success the artificial inoculation, the plants were transferred to a humid chamber with a relative humidity of about 95% and 20 to 24° C. for 24 hr. The trial plants were cultivated for up to 14 days in a greenhouse chamber at 23 to 27° C. and a relative humidity between 60 and 80%. The extent of fungal attack on the leaves was visually assessed as % diseased leaf area, the disease level of untreated controls was usually higher than 85%.

[2] = tested on: Phakopsora pachyrhizi containing the amino acid substitution F129L in the mitochondrial cytochrome b protein; experiment: Use Example 2: protective control of soybean rust on soybeans (PHAKPA P6); details: inoculated six days after spraying, % diseased leaf area
Experimental: as §1
Use Example 2. Protective Control of Soybean Rust on Soybeans Caused by Phakopsora Pachyrhizi (PHAKPA P6)
as §2, with “active ingredient as described” for “active ingredient or their mixture as described”, “cultivated for six days in” for “cultivated for 2 days in”, “95% and 23 to 27°” for “95% and 20 to 24°”, “23 to 27° C. for” for “20 to 24° C. for”

Puccinia recondita [3] = experiment: Use Example 3: curative control of brown rust on wheat (PUCCRT K4); details: % diseased leaf area
Experimental: as §1
Use Example 3. Curative Control of Brown Rust on Wheat Caused by Puccinia recondita (PUCCRT K4)
The first two developed leaves of potted wheat seedling were dusted with spores of Puccinia recondita. To ensure the success the artificial inoculation, the plants were transferred to a humid chamber without light and a relative humidity of 95 to 99% and 20 to 24° C. for 24 h. The next 3 days the plants were cultivated in a greenhouse chamber at 20 to 24° C. and a relative humidity between 65 and 70%. Then the plants were sprayed to run-off with previously described spray solution, containing the concentration of active ingredient or their mixture as described below. The plants were allowed to air-dry. Then the trial plants were cultivated for 5 to 7 days in a greenhouse chamber at 20 to 24° C. and a relative humidity between 65 and 70%. The extent of fungal attack on the leaves was visually assessed as % diseased leaf area, the disease level of untreated controls was usually between 80 and 100%.

Puccinia recondita [4] = experiment: Use Example 4: preventative control of brown rust on wheat (PUCCRT P7); details: inoculated seven days after spraying, % diseased leaf area
Experimental: as §1
Use Example 4. Preventative Control of Brown Rust on Wheat Caused by Puccinia recondita (PUCCRT P7)
The first two developed leaves of potted wheat seedling were sprayed to run-off with previously described spray solution, containing the concentration of active ingredient or their mixture as described below. Seven days later the plants were dusted with spores of Puccinia recondita. To ensure the success of the artificial inoculation, the plants were transferred to a humid chamber without light and a relative humidity of 95 to 99% and 20 to 24° C. for 24 h. Then the trial plants were cultivated for 9 to 11 days in a greenhouse chamber at 20 to 24° C. and a relative humidity between 65 and 70%. The extent of fungal attack on the leaves was visually assessed as % diseased leaf area, the disease level of untreated controls was usually between 80 and 100%.

Row | SMILES | % PHAKPA (F129L) Disease level P2 at 4 ppm [1] [%] | % PHAKPA (F129L) Disease level P2 at 16 ppm [1] [%] | % PHAKPA (F129L) Disease level P6 at 4 ppm [2] [%] | % PHAKPA (F129L) Disease level P6 at 16 ppm [2] [%] | % PUCCRT Disease level K4 at 4 ppm (Puccinia recondita [3]) [%] | % PUCCRT Disease level K4 at 16 ppm (Puccinia recondita [3]) [%] | % PUCCRT Disease level P7 at 4 ppm (Puccinia recondita [4]) [%] | % PUCCRT Disease level P7 at 16 ppm (Puccinia recondita [4]) [%]
1 | CO/C=C(/C(=O)OC)c1cccc(Cl)c1CO/N=C(/C#Cc1ccc(F)cc1)COC [compound 7, Methyl (E)-2-[3-chloro-2-[[(Z)-[3-(4-fluorophenyl)-1-(methoxymethyl)prop-2-ynylidene]amino]oxymethyl]phenyl]-3-methoxy-prop-2-enoate] | 2 | 0 | 11 | 0 | 70 | 50 | 35 | 4
2 | CO/C=C(/C(=O)OC)c1cccc(Br)c1CO/N=C(/C#Cc1ccc(F)cc1)COC [compound 8, Methyl-(E)-2-[3-bromo-2-[[(Z)-[3-(4-fluorophenyl)-1-(methoxymethyl)prop-2-ynylidene]amino]oxymethyl]phenyl]-3-methoxy-prop-2-enoate] | 2 | 0 | 12 | 0 | 6 | 0 | 0 | 0
3 | CO/C=C(/C(=O)OC)c1cccc(Cl)c1CO/N=C(\COC)c1ccccc1 [compound 11, Methyl-(E)-2-[3-chloro-2-[[(Z)-(2-methoxy-1-phenyl-ethylidene)amino]oxymethyl]phenyl]-3-methoxy-prop-2-enoate] | 2 | 0 | 11 | 0 | 7 | 0 | 25 | 1
4 | CO/C=C(/C(=O)OC)c1cccc(Cl)c1CO/N=C(\COC)c1ccccc1F [compound 13, Methyl-(E)-2-[3-chloro-2-[[(Z)-[1-(2-fluorophenyl)-2-methoxy-ethylidene]amino]oxymethyl]phenyl]-3-methoxy-prop-2-enoate] | 5 | 0 | 4 | 0 | 67 | 4 | 67 | 18
5 | CCOC/C(=N\OCc1c(F)cccc1/C(=C\OC)C(=O)OC)c1ccc(F)cc1 [compound 16] | 20 | 4 | 70 | 17 | 83 | 57 | 80 | 43
6 | CCOCC(=NOCc1c(Cl)cccc1C(=COC)C(=O)OC)c1ccccc1F [compound 18] | 6 | 0 | 22 | 2 | 77 | 32 | 80 | 30
7 | COC/C(=N\OCc1c(Cl)cccc1/C(=N\OC)C(=O)OC)c1ccccc1F [compound 19] | 33 | 6 | 77 | 31 | 87 | 80 | 53 | 15
8 | CCOC/C(=N\OCc1c(Cl)cccc1/C(=N\OC)C(=O)OC)c1ccccc1F [compound 20] | 60 | 43 | 63 | 63 | 80 | 77 | 70 | 57
9 | CNC(=O)/C(=N/OC)c1cccc(Cl)c1CO/N=C(\COC)c1ccccc1F [compound 21] | 7 | 0 | 16 | 1 | 63 | 28 | 33 | 6
10 | CCOC/C(=N\OCc1c(Cl)cccc1/C(=N\OC)C(=O)NC)c1ccccc1F [compound 22] | 15 | 4 | 40 | 4 | 80 | 63 | 53 | 28
11 | CCOCC(=NOCc1c(Cl)cccc1C(=COC)C(=O)OC)c1ccc(F)cc1 [compound 23] | 9 | 0 | 25 | 6 | 67 | 23 | 37 | 6
